Structures can show the parent of a compound that is named as a salt. Where two headings read alike, the source gives them in different places. Marks after values point to notes of the source that are not given here.
Key:
CaCl2-Arrhythmie = test: CaCl2-induced arrhythmia in the rat (antifibrillatory effect); assay type: in vivo, Ratte; conditions: for ED50: read-out: CaCl2-Arrhythmie Ratte, ED50
in vivo = assay type: in vivo; conditions: in vivo; for LD50: intravenous use according to b33, values in brackets = confidence range, read-out: akute Toxizität Ratte, LD50; for selectivity ratio: therapeutic breadth, read-out: Q LD50/ED50
Ratte [1] = conditions: rat, values in brackets = confidence range, cited from earlier work
Ratte [2] = test: in vivo; assay type: in vivo
[3] = rat, antifibrillatory effect, values in brackets = confidence range
[4] = rat LD50 / rat CaCl2-arrhythmia ED50

Compound | ED50 (CaCl2-Arrhythmie; [3]) [mg/kg] | LD50 (in vivo; rat) [mg/kg] | selectivity ratio (in vivo; [4]) | also measured
CN1C(=O)c2ccccc2N(C(=O)CCCCCNC2CCCCC2)c2ccccc21 [Beispiel 7, 5-(6-Cyclohexylamino-hexanoyl)-5,10-dihydro-10-methyl-11H-dibenzo/b,e//1,4/diazepin-11-on.HCl] | 0.025 | 32 | 1280 | –
C=CC1CN2CCC1CC2C(O)c1ccnc2ccc(OC)cc12 (stereo not drawn) [Chinidin] | 2.7 | 48 | – | selectivity ratio (in vivo; rat, rat LD50 / rat CaCl2-arrhythmia ED50): 18
CC(C)N(CCC(C(N)=O)(c1ccccc1)c1ccccn1)C(C)C (racemic) [Disopyramid] | – | – | – | akute Toxizität Ratte, LD50 (Ratte [1]; m (male), literature value from the Palpitin (R) brochure, Gedeon Richter): m 72 (60 - 80) * mg/kg; akute Toxizität Ratte, LD50 (Ratte [1]; w (female), literature value (footnote mark printed only on the m line)): w 66 (50 - 110) mg/kg; ED50 (CaCl2-Arrhythmie; Rattus norvegicus): 1.3 mg/kg; selectivity ratio (in vivo; rat, worked out with the cited LD50 of m (male) rats): 55; selectivity ratio (in vivo; rat, worked out with the cited LD50 of w (female) rats): 50
CN1C(=O)c2ccccc2N(C(=O)CCCCCNC2CCCCC2)c2ccc(Cl)cc21 [Beispiel 8, 8-Chlor-5-(6-cyclohexylamino-hexanoyl)-5,10-dihydro-10-methyl-11H-dibenzo/b,e//1,4/diazepin-11-on.HCl] | 0.33 | 35 | 106 | –
CCN(CC)CC(=O)Nc1c(C)cccc1C [Lidokain] | 3.1 | – | – | –
5-(6-Diethylamino-hexanoyl)-5,10-dihydro-10-methyl-11H-dibenzo/b,e//1,4/diazepin-11-on.HCl.0,5 H₂O [Beispiel 4] | – | – | – | CaCl2-Arrhythmie Ratte, ED50 (CaCl2-Arrhythmie; [3]): 0,033 (0,011 - 0,10) mg/kg; akute Toxizität Ratte, LD50 (Ratte [2]; rat, intravenous use according to b33, values in brackets = confidence range): 78 (73 - 84) mg/kg; Q LD50/ED50 (Ratte [2]; therapeutic breadth, rat LD50 / rat CaCl2-arrhythmia ED50): 2364

Reference: patent publication EP0515796A1, “5-Aminoacyl-5,10-dihydro-11H-dibenzo(b,e)(1,4)diazepin-11-ones, processes for their preparation, and their use as medicaments” (ARZNEIMITTELWERK DRESDEN GmbH, priority 1991, dated 1992)
